Earlier results on 22 compounds are cited in publication PMC6282790, “Incorporating physiologically relevant mobile phases in micellar liquid chromatography for the prediction of human intestinal absorption” (Biomedical Chromatography, 2018).

Like-named read-outs stand apart in the source and are kept apart here.

The conditions of series [1]: human intestinal absorption.
Details of series [2]: method as in https://pubchem.ncbi.nlm.nih.gov/, December 2014; unit not given beside the values. As to conditions: literature values; ref https://pubchem.ncbi.nlm.nih.gov/, December 2014.
For series [3] the following is noted: in 0.15 M NaCl.
Where [4] appears, read: ref Castillo‐Garit et al. (2014).

For the compound `O=C(O)c1ccccc1O` [Salicylic acid, salicylic acid], the “Experimental. %HIA” value in series [1] (ref Raevsky (2004)) is listed as 99%. Further, the PSA in series [2] was 57.5. In the case of `CC(C)(C)NCC(O)c1cc(O)cc(O)c1` (stereo not shown) [Terbutaline, terbutaline], the “Experimental. %HIA” value in series [1] (ref Grès et al. (1998)) is listed as 25%. The PSA in series [2] was 72.7.

For `C[C@H](CCC(=O)NCCS(=O)(=O)O)[C@H]1CC[C@H]2[C@@H]3[C@H](O)C[C@@H]4C[C@H](O)CC[C@]4(C)[C@H]3C[C@H](O)[C@]12C` [NaTC, sodium taurocholate], the CMC in series [3] (ref Natalini et al., 2014) is 4 mM. Take `Cn1c(=O)c2[nH]cnc2n(C)c1=O` [Theophylline, theophylline]: in series [1] (ref Kansy, Senner, & Gubernator (1998)), the “Experimental. %HIA” value was 98%. For the same compound, the PSA in series [2] was 69.3.

Regarding `C[C@H](CCC(=O)NCC(=O)[O-])[C@H]1CC[C@H]2[C@@H]3CC[C@@H]4C[C@H](O)CC[C@]4(C)[C@H]3C[C@H](O)[C@]12C.[Na+]` [NaGDC, sodium glycodeoxycholate], in series [3] (ref Natalini et al., 2014), the CMC was 2.2 mM. For the compound `COc1ccc2cc([C@H](C)C(=O)O)ccc2c1` [Naproxen, naproxen], in series [1] (setting [4]), the “Experimental. %HIA” value is 94%. For the compound `O=C(O)Cc1ccccc1Nc1c(Cl)cccc1Cl` [Diclofenac, diclofenac], the “Experimental. %HIA” value in series [1] (ref Veber et al. (2002)) was 54%. In the case of `CN/C(=N/CCSCc1nc[nH]c1C)NC#N` [Cimetidine, cimetidine], the “Experimental. %HIA” value in series [1] (ref Castillo‐Garit et al. (2014), Linnankoski, Mäkelä, Ranta, Urtti, & Yliperttula (2006)) is recorded as 68%. Moreover, in series [2], the PSA is reported as 88.89. Consider `NC(=O)N1c2ccccc2C=Cc2ccccc21` [Carbamazepine, carbamazepine], for which the “Experimental. %HIA” value in series [1] (ref Dressman, Amidon, & Fleisher (1985), Varma, Sateesh, & Panchagnula (2005)) is 84%. In series [2], the PSA was 46.3. On to `CC(=O)Nc1ccc(O)cc1` [Acetaminophen, acetaminophen], for which the “Experimental. %HIA” value in series [1] (setting [4]) was 100%. Moreover, in series [2], the PSA is listed as 49.3.

As to `CN(C)CCc1c[nH]c2ccc(C[C@H]3COC(=O)N3)cc12` [Zolmitriptan, zolmitriptan], the “Experimental. %HIA” value in series [1] (ref Newby et al. (2015)) is reported as 92%. Besides, in series [2], the PSA is recorded as 57.4. On to `C[C@H](CCC(=O)NCCS(=O)(=O)[O-])[C@H]1CC[C@H]2[C@@H]3CC[C@@H]4C[C@H](O)CC[C@]4(C)[C@H]3C[C@H](O)[C@]12C.[Na+]` [NaTDC, sodium taurodeoxycholate], for which the CMC in series [3] (ref Natalini et al., 2014) was 2.4 mM.

With `OC(Cn1cncn1)(Cn1cncn1)c1ccc(F)cc1F` [Fluconazole, fluconazole], in series [2], the PSA is 81.6. With `C[C@H](CCC(=O)NCC(=O)[O-])[C@H]1CC[C@H]2[C@@H]3[C@H](O)C[C@@H]4C[C@H](O)CC[C@]4(C)[C@H]3C[C@H](O)[C@]12C.[Na+]` [NaGC, sodium glycocholate], the CMC in series [3] (ref Natalini et al., 2014) is 9 mM. On to `CC(C(=O)O)c1cccc(C(=O)c2ccccc2)c1` (stereo not shown) [Ketoprofen, ketoprofen], for which the PSA in series [2] is reported as 54.4.

For `CC(C(=O)O)c1cccc(Oc2ccccc2)c1` (stereo not shown) [Fenoprofen, fenoprofen], the “Experimental. %HIA” value in series [1] (ref Hou, Wang, Zhang, & Xu (2007)) is 85%. For the same compound, the PSA in series [2] is 46.5. `C[C@H](CCC(=O)[O-])[C@H]1CC[C@H]2[C@@H]3[C@H](O)C[C@@H]4C[C@H](O)CC[C@]4(C)[C@H]3C[C@H](O)[C@]12C.[Na+]` [NaC, sodium cholate]: the CMC in series [3] (ref Reis et al., 2004) was 7.5 mM. Take `CCCCC1C(=O)N(c2ccccc2)N(c2ccccc2)C1=O` [Phenylbutazone, phenylbutazone]: the “Experimental. %HIA” value in series [1] (ref Hou et al. (2007), Veber et al. (2002)) is 94%. Moreover, in series [2], the PSA is given as 40.6. As to `CC(C(=O)O)c1ccc(-c2ccccc2)c(F)c1` (stereo not shown) [Flurbiprofen, flurbiprofen], the “Experimental. %HIA” value in series [1] (ref Raevsky (2004)) is 92%. In addition, in series [2], the PSA is reported as 37.3.

Take `CC(=O)Oc1ccccc1C(=O)O` [Acetylsalicylic acid, acetyl salicylic acid]: in series [1] (setting [4]), the “Experimental. %HIA” value is 82%. Moreover, in series [2], the PSA is given as 63.6. Consider `CC(C)Cc1ccc(C(C)C(=O)O)cc1` (stereo not shown) [Ibuprofen, ibuprofen], for which the “Experimental. %HIA” value in series [1] (ref Newby et al. (2015)) is on record as 98%. The PSA in series [2] is reported as 37.3. As for `O=C(O)c1cccnc1` [Nicotinic acid, nicotinic acid], in series [1] (ref Newby et al. (2015)), the “Experimental. %HIA” value is given as 94%.
